Source: PMC5218480 (PLoS ONE, 2017)

Test system: MV-4-11 cells
Test: Gene expression microarray analysis (Affymetrix PrimeView) and GSEA
Format: cell-based, human
Set-up: RFU PODN (11730768_x_at) / Fold change /veh PODN (11730768_x_at) / RFU LINC00158 (11744669_a_at) / Fold change /veh LINC00158 (11744669_a_at) / RFU DUSP10 (11751237_a_at) / Fold change /veh DUSP10 (11751237_a_at) / RFU ID3 (11757404_x_at) / Fold change /veh ID3 (11757404_x_at) / RFU PLEKHG5 (11737974_s_at) / Fold change /veh PLEKHG5 (11737974_s_at) / RFU LRRC4B (11730491_at) / Fold change /veh LRRC4B (11730491_at) / RFU GIMAP4 (11747438_a_at) / Fold change /veh GIMAP4 (11747438_a_at) / RFU KRT8 (11758183_x_at) / Fold change /veh KRT8 (11758183_x_at) / RFU CNN1 (11734310_a_at) / Fold change /veh CNN1 (11734310_a_at) / RFU VPS37D (11726825_at) / Fold change /veh VPS37D (11726825_at) / RFU C10orf10 (11716522_x_at) / Fold change /veh C10orf10 (11716522_x_at) / RFU KIR2DL2 /// KIR2DL4 /// KIR2DL5A /// KIR2DL5B /// KIR2DS1 /// KIR2DS2 /// KIR2DS3 /// KIR2DS4 /// KIR3DL3 /// KIR3DL3 /// KIR3DS1 (11738374_at) / Fold change /veh KIR2DL2 /// KIR2DL4 /// KIR2DL5A /// KIR2DL5B /// KIR2DS1 /// KIR2DS2 /// KIR2DS3 /// KIR2DS4 /// KIR3DL3 /// KIR3DL3 /// KIR3DS1 (11738374_at) / RFU C1QL1 (11718748_at) / Fold change /veh C1QL1 (11718748_at) / RFU TMPRSS4 (11747572_a_at) / Fold change /veh TMPRSS4 (11747572_a_at) / RFU HAMP (11756126_x_at) / Fold change /veh HAMP (11756126_x_at) / RFU RNFT2 (11725882_a_at) / Fold change /veh RNFT2 (11725882_a_at) / RFU NR4A2 (11747474_a_at) / Fold change /veh NR4A2 (11747474_a_at) / RFU ABCC12 (11746883_a_at) / Fold change /veh ABCC12 (11746883_a_at) / RFU TMEM136 (11760407_x_at) / Fold change /veh TMEM136 (11760407_x_at) / RFU CLDN22 /// WWC2 (11732394_at) / Fold change /veh CLDN22 /// WWC2 (11732394_at) / RFU HLA-DPB1 (11760878_x_at) / Fold change /veh HLA-DPB1 (11760878_x_at) / RFU SPINT1 (11716480_a_at) / Fold change /veh SPINT1 (11716480_a_at) / RFU GAP43 (11754022_s_at) / Fold change /veh GAP43 (11754022_s_at) / RFU A4GNT (11735810_at) / Fold change /veh A4GNT (11735810_at) / RFU PRB3 (11715151_x_at) / Fold change /veh PRB3 (11715151_x_at) / RFU TUBB4B (11761932_at) / Fold change /veh TUBB4B (11761932_at) / RFU CAPN14 (11732068_a_at) / Fold change /veh CAPN14 (11732068_a_at) / RFU TMCC2 (11721928_a_at) / Fold change /veh TMCC2 (11721928_a_at) / RFU IRGQ (11745062_a_at) / Fold change /veh IRGQ (11745062_a_at) / RFU FAM174B (11720279_a_at) / Fold change /veh FAM174B (11720279_a_at) / RFU TMPRSS4 (11748680_a_at) / Fold change /veh TMPRSS4 (11748680_a_at) / RFU FAM212B (11763350_a_at) / Fold change /veh FAM212B (11763350_a_at) / RFU PLEKHG5 (11743358_a_at) / Fold change /veh PLEKHG5 (11743358_a_at) / RFU ZSCAN30 (11745921_a_at) / Fold change /veh ZSCAN30 (11745921_a_at) / RFU CMKLR1 (11741424_a_at) / Fold change /veh CMKLR1 (11741424_a_at) / RFU LOC101060620 /// MAPK8IP1 (11723275_at) / Fold change /veh LOC101060620 /// MAPK8IP1 (11723275_at) / RFU SPTSSB (11747773_x_at) / Fold change /veh SPTSSB (11747773_x_at) / RFU PRSS12 (11739890_at) / Fold change /veh PRSS12 (11739890_at) / RFU BIN1 (11741810_x_at) / Fold change /veh BIN1 (11741810_x_at) / RFU WNT11 (11732464_a_at) / Fold change /veh WNT11 (11732464_a_at) / RFU C10orf10 (11716521_a_at) / Fold change /veh C10orf10 (11716521_a_at) / RFU C5orf56 (11738089_at) / Fold change /veh C5orf56 (11738089_at) / RFU CYB561 (11721691_x_at) / Fold change /veh CYB561 (11721691_x_at) / RFU ANKRD19P (11752326_a_at) / Fold change /veh ANKRD19P (11752326_a_at) / RFU OR2T12 /// OR2T33 /// OR2T8 (11738714_s_at) / Fold change /veh OR2T12 /// OR2T33 /// OR2T8 (11738714_s_at) / RFU VCAN (11748164_a_at) / Fold change /veh VCAN (11748164_a_at) / RFU JSRP1 (11732532_at) / Fold change /veh JSRP1 (11732532_at) / RFU KRTAP10-11 (11738290_x_at) / Fold change /veh KRTAP10-11 (11738290_x_at) / RFU MYO3A (11730013_a_at) / Fold change /veh MYO3A (11730013_a_at) / RFU EBF3 (11725865_a_at) / Fold change /veh EBF3 (11725865_a_at) / RFU CAMK2N1 (11719241_x_at) / Fold change /veh CAMK2N1 (11719241_x_at) / RFU C5orf56 (11738088_a_at) / Fold change /veh C5orf56 (11738088_a_at) / RFU OLFML3 (11715873_a_at) / Fold change /veh OLFML3 (11715873_a_at) / RFU LOC100653217 /// NTM (11731650_a_at) / Fold change /veh LOC100653217 /// NTM (11731650_a_at) / RFU MAPK11 (11762145_a_at) / Fold change /veh MAPK11 (11762145_a_at) / RFU FIZ1 (11724087_x_at) / Fold change /veh FIZ1 (11724087_x_at) / RFU OASL (11726364_x_at) / Fold change /veh OASL (11726364_x_at) / RFU SOX15 (11748057_x_at) / Fold change /veh SOX15 (11748057_x_at) / RFU CD79A (11719716_a_at) / Fold change /veh CD79A (11719716_a_at) / RFU HIST1H1D (11736915_at) / Fold change /veh HIST1H1D (11736915_at) / RFU CASKIN2 (11723855_a_at) / Fold change /veh CASKIN2 (11723855_a_at) / RFU LOC730098 (11760151_x_at) / Fold change /veh LOC730098 (11760151_x_at) / RFU OR4N2 (11742367_at) / Fold change /veh OR4N2 (11742367_at) / RFU PRRT2 (11749266_a_at) / Fold change /veh PRRT2 (11749266_a_at) / RFU SNX32 (11753110_a_at) / Fold change /veh SNX32 (11753110_a_at) / RFU CDHR5 (11726645_a_at) / Fold change /veh CDHR5 (11726645_a_at) / RFU RCAN1 (11760418_a_at) / Fold change /veh RCAN1 (11760418_a_at) / RFU FAM167A (11723789_a_at) / Fold change /veh FAM167A (11723789_a_at) / RFU FAM26E (11764081_at) / Fold change /veh FAM26E (11764081_at) / RFU ISYNA1 (11749810_s_at) / Fold change /veh ISYNA1 (11749810_s_at) / RFU ACY1 (11761880_at) / Fold change /veh ACY1 (11761880_at) / RFU 11764098_at / Fold change /veh 11764098_at / RFU SAMD14 (11745864_x_at) / Fold change /veh SAMD14 (11745864_x_at) / RFU NPB (11741838_a_at) / Fold change /veh NPB (11741838_a_at) / RFU TMPRSS6 (11731388_a_at) / Fold change /veh TMPRSS6 (11731388_a_at) / RFU KRTAP10-2 (11738614_at) / Fold change /veh KRTAP10-2 (11738614_at) / RFU ARHGAP8 /// PRR5-ARHGAP8 (11727945_x_at) / Fold change /veh ARHGAP8 /// PRR5-ARHGAP8 (11727945_x_at) / RFU KRTAP5-7 /// NADSYN1 (11734609_at) / Fold change /veh KRTAP5-7 /// NADSYN1 (11734609_at) / RFU RASL12 (11751679_a_at) / Fold change /veh RASL12 (11751679_a_at) / RFU CDKN2B (11736163_a_at) / Fold change /veh CDKN2B (11736163_a_at) / RFU PRF1 (11729649_at) / Fold change /veh PRF1 (11729649_at) / RFU, ZNF638 /// ZNF638-IT1 / Fold change vs veh, ZNF638 /// ZNF638-IT1 / RFU, PANK3 / Fold change vs veh, PANK3 / RFU, SH3YL1 / Fold change vs veh, SH3YL1 / RFU, ZEB2 / Fold change vs veh, ZEB2 / RFU, NRIP1 / Fold change vs veh, NRIP1 / RFU, PTTG1IP / Fold change vs veh, PTTG1IP / RFU, CAPN2 / Fold change vs veh, CAPN2 / RFU, MED14 / Fold change vs veh, MED14 / RFU, SNORA58 / Fold change vs veh, SNORA58 / RFU, C1orf63 / Fold change vs veh, C1orf63 / RFU, LRRFIP1 / Fold change vs veh, LRRFIP1 / RFU, NDUFAF7 / Fold change vs veh, NDUFAF7 / RFU, SLC12A2 / Fold change vs veh, SLC12A2 / RFU, IBTK / Fold change vs veh, IBTK / RFU, ESF1 / Fold change vs veh, ESF1 / Fold change vs veh, TMEM50B / RFU, TAOK1 / Fold change vs veh, TAOK1 / RFU, ACBD3 / Fold change vs veh, ACBD3 / RFU, TMA16 / Fold change vs veh, TMA16 / RFU, RWDD3 / Fold change vs veh, RWDD3 / RFU, BCAT1 / Fold change vs veh, BCAT1 / RFU, EDEM3 / Fold change vs veh, EDEM3 / RFU, TMEM33 / Fold change vs veh, TMEM33 / RFU, WDR75 / Fold change vs veh, WDR75 / RFU, AHCTF1 / Fold change vs veh, AHCTF1 / RFU, TFRC / Fold change vs veh, TFRC / RFU, ZDHHC17 / Fold change vs veh, ZDHHC17 / RFU, NOM1 / Fold change vs veh, NOM1 / RFU, ARL8B / Fold change vs veh, ARL8B / RFU, ZBTB11 / Fold change vs veh, ZBTB11 / RFU, TAMM41 / Fold change vs veh, TAMM41 / RFU, KIAA1704 /// LOC100996395 / Fold change vs veh, KIAA1704 /// LOC100996395 / RFU, ING1 / Fold change vs veh, ING1 / RFU, TRMT61B / Fold change vs veh, TRMT61B / RFU, FUBP3 / Fold change vs veh, FUBP3 / RFU, TP53 / Fold change vs veh, TP53 / RFU, TNKS2 / Fold change vs veh, TNKS2 / RFU, ZFP14 / Fold change vs veh, ZFP14 / RFU, ACTR2 / Fold change vs veh, ACTR2 / RFU, PPP3R1 / Fold change vs veh, PPP3R1 / RFU, PIK3R1 / Fold change vs veh, PIK3R1 / RFU, HNRNPA1 / Fold change vs veh, HNRNPA1 / RFU, RNF170 / Fold change vs veh, RNF170 / RFU, ZNF28 / Fold change vs veh, ZNF28 / RFU, RNGTT / Fold change vs veh, RNGTT / RFU, OGT / Fold change vs veh, OGT / RFU, BRD1 / Fold change vs veh, BRD1 / RFU, MARS / Fold change vs veh, MARS / RFU, ZNF655 / Fold change vs veh, ZNF655 / RFU, FAHD1 / Fold change vs veh, FAHD1 / RFU, BDP1 / Fold change vs veh, BDP1 / RFU, LRRCC1 / Fold change vs veh, LRRCC1 / RFU, ARID1A / Fold change vs veh, ARID1A / RFU, ZNF146 / Fold change vs veh, ZNF146 / RFU, ZNF330 / Fold change vs veh, ZNF330 / RFU, GPN3 / Fold change vs veh, GPN3 / RFU, C9orf123 / Fold change vs veh, C9orf123 / RFU, N4BP2L2 / Fold change vs veh, N4BP2L2 / RFU, ARFIP1 / Fold change vs veh, ARFIP1 / RFU, FAM179B / Fold change vs veh, FAM179B / RFU, BCL10 / Fold change vs veh, BCL10 / RFU, UHRF1BP1L / Fold change vs veh, UHRF1BP1L / RFU, BET1 / Fold change vs veh, BET1 / RFU, CNOT2 / Fold change vs veh, CNOT2 / RFU, ZNF268 / Fold change vs veh, ZNF268 / Fold change vs veh, ZNF507 / RFU, DGCR2 / Fold change vs veh, DGCR2 / RFU, WDSUB1 / Fold change vs veh, WDSUB1 / Fold change vs veh, HSP90B1 /// MIR3652 / RFU, ADSS / Fold change vs veh, ADSS / RFU, GK / Fold change vs veh, GK / RFU, ZNF148 / Fold change vs veh, ZNF148 / RFU, TAF9 / Fold change vs veh, TAF9 / RFU, SLC1A5 / Fold change vs veh, SLC1A5 / RFU, SLMO2 / Fold change vs veh, SLMO2 / RFU, ABCC4 / Fold change vs veh, ABCC4 / RFU, LOC101060439 /// RAP1B / Fold change vs veh, LOC101060439 /// RAP1B / RFU, RFX7 / Fold change vs veh, RFX7 / RFU, GTPBP10 / Fold change vs veh, GTPBP10 / RFU, CNEP1R1 / Fold change vs veh, CNEP1R1 / RFU, BIVM-ERCC5 /// ERCC5 / Fold change vs veh, BIVM-ERCC5 /// ERCC5 / RFU, ILF3 / Fold change vs veh, ILF3 / RFU 11762660_at / Fold change /veh 11762660_at / RFU VCAN (11757783_s_at) / Fold change /veh VCAN (11757783_s_at) / RFU DDX43 (11728927_at) / Fold change /veh DDX43 (11728927_at) / RFU KRT8 (11758188_x_at) / Fold change /veh KRT8 (11758188_x_at) / RFU NKD1 (11759106_at) / Fold change /veh NKD1 (11759106_at) / RFU SRD5A1 (11742802_a_at) / Fold change /veh SRD5A1 (11742802_a_at) / RFU TPSAB1 /// TPSB2 (11721975_s_at) / Fold change /veh TPSAB1 /// TPSB2 (11721975_s_at) / RFU GSTM3 (11746129_a_at) / Fold change /veh GSTM3 (11746129_a_at) / RFU IL23R (11737362_x_at) / Fold change /veh IL23R (11737362_x_at) / RFU TMEM51 (11727254_a_at) / Fold change /veh TMEM51 (11727254_a_at) / RFU PIWIL2 (11732686_x_at) / Fold change /veh PIWIL2 (11732686_x_at) / RFU ORM1 (11744905_x_at) / Fold change /veh ORM1 (11744905_x_at) / RFU CCDC152 (11743942_at) / Fold change /veh CCDC152 (11743942_at) / RFU ECM1 (11717891_a_at) / Fold change /veh ECM1 (11717891_a_at) / RFU IL23R (11748794_a_at) / Fold change /veh IL23R (11748794_a_at) / RFU TNFAIP8L3 (11732012_x_at) / Fold change /veh TNFAIP8L3 (11732012_x_at) / RFU MBOAT4 (11741988_at) / Fold change /veh MBOAT4 (11741988_at) / RFU 11764193_at / Fold change /veh 11764193_at / RFU TMEM53 (11763286_at) / Fold change /veh TMEM53 (11763286_at) / RFU MAGEB2 (11727129_at) / Fold change /veh MAGEB2 (11727129_at) / RFU TMEM200A (11744735_a_at) / Fold change /veh TMEM200A (11744735_a_at) / RFU CCDC152 (11751479_a_at) / Fold change /veh CCDC152 (11751479_a_at) / RFU FAM211A (11726209_a_at) / Fold change /veh FAM211A (11726209_a_at) / RFU RGS16 (11746705_a_at) / Fold change /veh RGS16 (11746705_a_at) / RFU VCAN (11755009_s_at) / Fold change /veh VCAN (11755009_s_at) / RFU RHOB (11743442_s_at) / Fold change /veh RHOB (11743442_s_at) / RFU RGS16 (11720943_a_at) / Fold change /veh RGS16 (11720943_a_at) / RFU RGS16 (11720944_at) / Fold change /veh RGS16 (11720944_at) / RFU, VPS4B / Fold change vs veh, VPS4B / RFU, CREB1 / Fold change vs veh, CREB1 / RFU, DNAJC13 / Fold change vs veh, DNAJC13 / RFU, GNAQ / Fold change vs veh, GNAQ / RFU, CDK5R1 / Fold change vs veh, CDK5R1 / RFU, ZRANB3 / Fold change vs veh, ZRANB3 / RFU, CUL4A / Fold change vs veh, CUL4A / RFU, CCNY / Fold change vs veh, CCNY / RFU, UFL1 / Fold change vs veh, UFL1 / RFU, COG3 / Fold change vs veh, COG3 / RFU, DIAPH2 / Fold change vs veh, DIAPH2 / RFU, SKA2 / Fold change vs veh, SKA2 / RFU, AFF3 / Fold change vs veh, AFF3 / RFU, LMF1 / Fold change vs veh, LMF1 / RFU, IPO11 / Fold change vs veh, IPO11 / RFU, DFFB / Fold change vs veh, DFFB / RFU, FOXP1 / Fold change vs veh, FOXP1 / RFU, CARD8 / Fold change vs veh, CARD8 / RFU, STRN3 / Fold change vs veh, STRN3 / RFU, ADK / Fold change vs veh, ADK / RFU, RASSF2 / Fold change vs veh, RASSF2 / RFU, WIPF1 / Fold change vs veh, WIPF1 / RFU, LARP1B / Fold change vs veh, LARP1B / RFU, RASA1 / Fold change vs veh, RASA1 / RFU, RB1 / Fold change vs veh, RB1 / RFU, PPFIA1 / Fold change vs veh, PPFIA1 / RFU, MAT2A / Fold change vs veh, MAT2A / RFU, CCT5 / Fold change vs veh, CCT5 / RFU, WDR92 / Fold change vs veh, WDR92 / RFU, CUX1 / Fold change vs veh, CUX1 / RFU, TTC7A / Fold change vs veh, TTC7A / RFU, TMEM135 / Fold change vs veh, TMEM135 / RFU, DEPTOR / Fold change vs veh, DEPTOR / RFU, CPM / Fold change vs veh, CPM / RFU, DNAJB6 / Fold change vs veh, DNAJB6 / RFU, CACNA2D3 / Fold change vs veh, CACNA2D3 / RFU, DTX4 / Fold change vs veh, DTX4 / RFU, TFCP2 / Fold change vs veh, TFCP2 / RFU, GMCL1 /// GMCL1P1 / Fold change vs veh, GMCL1 /// GMCL1P1 / RFU, AEBP2 / Fold change vs veh, AEBP2 / RFU, SNHG1 /// SNORD22 /// SNORD25 /// SNORD26 /// SNORD27 /// SNORD28 /// SNORD29 /// SNORD31 / Fold change vs veh, SNHG1 /// SNORD22 /// SNORD25 /// SNORD26 /// SNORD27 /// SNORD28 /// SNORD29 /// SNORD31 / Fold change (Aza/veh), C12orf56 (ProbeSet 11735607_a_at) / Fold change (ACY-1035/veh), C12orf56 (ProbeSet 11735607_a_at) / Fold change (Aza/veh), FGFR1OP (ProbeSet 11751329_s_at) / Fold change (ACY-1035/veh), FGFR1OP (ProbeSet 11751329_s_at) / Fold change (Aza/veh), VPS36 (ProbeSet 11739960_a_at) / Fold change (ACY-1035/veh), VPS36 (ProbeSet 11739960_a_at) / RFU SYPL1 (11715823_x_at) / Fold change /veh SYPL1 (11715823_x_at) / RFU IGFBP7 (11715501_s_at) / Fold change /veh IGFBP7 (11715501_s_at) / RFU REEP3 (11722064_at) / Fold change /veh REEP3 (11722064_at) / RFU IGLL1 (11728026_x_at) / Fold change /veh IGLL1 (11728026_x_at): dose or concentration left out as unconfirmed
Settings: ProbeSet 11733108_at; LIST D

Nc1ncn([C@@H]2O[C@H](CO)[C@@H](O)[C@H]2O)c(=O)n1 [azacitidine]
RFU, GNAQ: 233.19 RFU
